Laboratory results from US11186564B2, “Dual NAV1.2/5HT2a inhibitors for treating CNS disorders” (Sunovion Pharmaceuticals Inc., priority 2016, dated 2021).

Tests used:
[1] = target: T1, recombinant human serotonin receptor 5-HT2A (Homo sapiens, UniProt P28223); assay: 5-HT2A antagonist Ca2+ assay in CHO-K1 cells (method A aequorin luminescence / method B FLIPR fluorescence); type: cell-based; conditions: antagonist mode vs EC80 of reference agonist, method A or B, read-out: 5HT2A IC50
T1 construct: expressed in transfected cells; method B: loaded with Ca2+ dye
T1 sequence (P28223 whole entry): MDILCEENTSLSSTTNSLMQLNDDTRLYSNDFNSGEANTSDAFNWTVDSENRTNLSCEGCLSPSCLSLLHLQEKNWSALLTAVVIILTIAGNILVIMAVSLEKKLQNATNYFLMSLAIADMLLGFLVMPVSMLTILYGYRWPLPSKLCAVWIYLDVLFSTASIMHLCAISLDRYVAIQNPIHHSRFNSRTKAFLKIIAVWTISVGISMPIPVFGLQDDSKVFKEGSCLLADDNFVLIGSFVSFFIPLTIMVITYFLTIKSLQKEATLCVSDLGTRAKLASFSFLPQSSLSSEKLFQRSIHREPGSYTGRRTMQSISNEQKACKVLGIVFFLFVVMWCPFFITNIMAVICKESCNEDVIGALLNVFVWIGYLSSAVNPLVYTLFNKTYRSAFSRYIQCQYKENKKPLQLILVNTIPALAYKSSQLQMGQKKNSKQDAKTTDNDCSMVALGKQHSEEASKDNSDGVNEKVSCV
How it was run: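 Method A: CHO-K1 cells co-expressing human 5-HT2A and mitochondrial apoaequorin were given reference agonist at EC80 15 min after compound, with luminescence read. Method B: dye-loaded 5-HT2A CHO-K1 cells were pretreated with compound, then given serotonin at EC80, with FLIPR fluorescence read. IC50s came from nonlinear fits of percent inhibition.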

[2] = target: human sodium channel NaV1.2 (Homo sapiens, UniProt Q99250); assay: NaV1.2 inhibition, automated patch-clamp (Q-Patch HTX), slow inactivated state (state C); type: cell-based; conditions: hNaV1.2 CHO cells, slow inactivated state; for inhibition at 1 µM: 1 μM compound, read-out: NaV1.2 (% inh), 1 μM
Sequence of human sodium channel NaV1.2 (Q99250 whole entry): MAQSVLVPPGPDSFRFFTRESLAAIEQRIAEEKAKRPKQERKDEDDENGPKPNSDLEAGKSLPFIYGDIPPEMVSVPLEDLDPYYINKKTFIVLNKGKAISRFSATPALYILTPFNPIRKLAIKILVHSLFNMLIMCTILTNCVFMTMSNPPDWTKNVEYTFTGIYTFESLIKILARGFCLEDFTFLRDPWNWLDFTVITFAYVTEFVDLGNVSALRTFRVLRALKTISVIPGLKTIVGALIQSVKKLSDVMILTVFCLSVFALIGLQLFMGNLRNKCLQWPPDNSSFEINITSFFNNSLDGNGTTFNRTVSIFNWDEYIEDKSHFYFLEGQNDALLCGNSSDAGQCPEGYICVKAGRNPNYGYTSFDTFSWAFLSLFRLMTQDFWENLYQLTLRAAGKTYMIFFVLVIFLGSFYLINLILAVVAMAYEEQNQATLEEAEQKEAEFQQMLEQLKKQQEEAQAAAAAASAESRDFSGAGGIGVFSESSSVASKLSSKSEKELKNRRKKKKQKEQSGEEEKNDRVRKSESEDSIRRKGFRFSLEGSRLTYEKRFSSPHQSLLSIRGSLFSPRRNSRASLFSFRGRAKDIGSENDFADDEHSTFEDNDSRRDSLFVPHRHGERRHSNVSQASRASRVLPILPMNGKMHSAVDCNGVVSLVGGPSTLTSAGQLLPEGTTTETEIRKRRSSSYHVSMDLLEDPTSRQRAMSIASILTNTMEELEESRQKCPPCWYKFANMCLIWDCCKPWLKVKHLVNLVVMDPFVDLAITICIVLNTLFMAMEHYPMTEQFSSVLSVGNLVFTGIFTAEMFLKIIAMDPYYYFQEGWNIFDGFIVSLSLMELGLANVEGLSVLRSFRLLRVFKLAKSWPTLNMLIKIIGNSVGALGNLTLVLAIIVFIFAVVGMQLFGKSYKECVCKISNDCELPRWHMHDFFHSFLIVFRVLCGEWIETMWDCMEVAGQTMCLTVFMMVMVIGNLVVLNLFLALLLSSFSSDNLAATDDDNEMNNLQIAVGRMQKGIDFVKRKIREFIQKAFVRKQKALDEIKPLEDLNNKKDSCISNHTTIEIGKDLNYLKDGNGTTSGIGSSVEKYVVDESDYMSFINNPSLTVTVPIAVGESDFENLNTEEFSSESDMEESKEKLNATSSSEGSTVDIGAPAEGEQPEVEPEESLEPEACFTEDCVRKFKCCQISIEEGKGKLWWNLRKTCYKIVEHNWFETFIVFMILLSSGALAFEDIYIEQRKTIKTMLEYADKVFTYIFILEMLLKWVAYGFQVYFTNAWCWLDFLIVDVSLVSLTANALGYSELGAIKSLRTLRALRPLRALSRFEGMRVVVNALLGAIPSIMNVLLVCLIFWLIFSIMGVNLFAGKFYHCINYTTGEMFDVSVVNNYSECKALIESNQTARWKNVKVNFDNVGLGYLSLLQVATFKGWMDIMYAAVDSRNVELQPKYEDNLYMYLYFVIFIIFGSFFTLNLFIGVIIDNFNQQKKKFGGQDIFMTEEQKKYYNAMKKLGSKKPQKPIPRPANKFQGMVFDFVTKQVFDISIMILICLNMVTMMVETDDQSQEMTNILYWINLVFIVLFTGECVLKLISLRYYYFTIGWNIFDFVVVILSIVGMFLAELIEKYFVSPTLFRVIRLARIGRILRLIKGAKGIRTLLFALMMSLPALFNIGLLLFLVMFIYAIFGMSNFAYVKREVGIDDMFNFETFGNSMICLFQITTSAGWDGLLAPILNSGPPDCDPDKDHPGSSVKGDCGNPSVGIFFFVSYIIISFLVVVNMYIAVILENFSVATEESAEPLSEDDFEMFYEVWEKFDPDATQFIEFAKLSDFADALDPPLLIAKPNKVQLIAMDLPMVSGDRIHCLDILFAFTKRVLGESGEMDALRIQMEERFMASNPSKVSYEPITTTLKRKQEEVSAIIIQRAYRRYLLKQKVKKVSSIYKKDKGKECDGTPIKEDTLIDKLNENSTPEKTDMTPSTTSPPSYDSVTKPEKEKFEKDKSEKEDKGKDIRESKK
How it was run: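 CHO K-1 cells stably expressing human NaV1.2, whole-cell automated patch clamp, holding −100 mV; slow-inactivated state (state C) read at a 5 ms step to 0 mV after 10 s at −50 mV and 15 ms at −90 mV. Percent inhibition vs vehicle; IC50 by nonlinear least-squares fit.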

Row | SMILES | IC50 [1] [nM] | inhibition at 1 µM [2] [%] | IC50 ([2]; read-out: NaV1.2 IC50) [nM] | inhibition at 10 µM ([2]; 10 μM compound, read-out: NaV1.2 (% inh), 10 μM) [%]
1 | O[C@H](COc1ccccc1)CN1CCC2(CCc3ccccc3O2)CC1 [Example 440, (S)-1-phenoxy-3-(spiro[chromane-2,4′-piperidin]-1′-yl)propan-2-ol] | 80 | -8 | – | –
2 | O[C@@H](COc1ccccc1)CN1CCC2(CCc3ccccc3O2)CC1 [Example 441, (R)-1-phenoxy-3-(spiro[chromane-2,4′-piperidin]-1′-yl)propan-2-ol] | 30 | 17 | – | –
3 | c1ccc2c(c1)CC1(CCN(CC3CCc4ccccc43)CC1)CO2 (centres unmarked) [Example 442, 1′-((2,3-dihydro-1H-inden-1-yl)methyl)spiro[chromane-3,4′-piperidine]] | 590 | 37 | – | –
4 | c1ccc2c(c1)COC1(CCN(CC3CCc4ccccc43)CC1)C2 (centres unmarked) [Example 443, l′-((2,3-dihydro-1H-inden-1-yl)methyl)spiro[isochromane-3,4′-piperidine]] | 220 | – | 3370 | –
5 | O=C1Nc2ccccc2CC12CCN(C[C@H](O)COc1ccccc1)CC2 [Example 445, (S)-1-(2-hydroxy-3-phenoxypropyl)-1′,4′-dihydro-2′H-spiro[piperidine-4,3′-quinolin]-2′-one] | 300 | -2 | – | –
6 | O=C1Nc2ccccc2CC12CCN(C[C@@H](O)COc1ccccc1)CC2 [Example 446, (R)-1-(2-hydroxy-3-phenoxypropyl)-1′,4′-dihydro-2′H-spiro[piperidine-4,3′-quinolin]-2′-one] | 610 | 11 | – | –
7 | O=C(NCCN1CCCCC1)c1cccc(-c2ccc(Oc3ccc(F)cc3)cc2)n1 [Example 447, 6-(4-(4-fluorophenoxy)phenyl)-N-(2-(piperidin-1-yl)ethyl)picolinamide] | 1260 | – | – | 99
